In US11504362B2, “Liquid dosage forms to treat cancer” (Exelixis, Inc., priority 2017, dated 2022):
“And” between values parts separate entries of the source, which are not always exact repeats. Equal values may be shown once.

Assay: Mass balance: excretion and recovery of 14C total radioactivity in urine and feces
Format: in vivo, human
Text: Methodology: This was an open-label, single-dose, single-center, mass balance, Phase 1 study in healthy male volunteers. There were two study periods: a Screening Period, during which subjects underwent assessments to determine their eligibility for the study, and an On-study Period, which started on Day-1 (‘check-in’ day) when the subject was admitted to the Celerion clinic. […] However, subjects who were discharged from the clinic before Day 28 were required to return to the clinic for all remaining scheduled pharmacokinetic blood sampling and the Day 28 safety assessments. Subjects not meeting radioactivity release criteria by Day 28 could be asked to remain confined in the clinic or continue collection of urine and feces at home (returning samples to the clinic daily) for up to an additional 7 days (through to Day 35). Due to the fact that by Day 35 subjects had still not met release criteria, subjects were given the option of withdrawing from the study or completing the additional 14-day collection period (either in the clinic or as a daily visitor) with urine and feces collections and daily adverse event (AE) inquiries. All urine and fecal collections for all subjects stopped following the conclusion of the Day 49 scheduled events regardless of percentage of total radioactive dose recovered.
A single dose oral solution was administered at Hour 0 on Day 1 by the clinic staff. The dose was given via the scintillation vial. Following dosing, the scintillation vial was rinsed 3 times with room temperature distilled water, and the rinsate was administered to the subject. Residual radioactivity was determined for each dosing vial. The total volume of liquid administered including radiolabelled study drug, rinses, and water given for dosing (in addition to the rinses) was the same for each subject.
Mass balance was calculated as the percent of total administered radioactivity recovered in urine and feces. For the purpose of calculating mass balance, the amount of administered radioactivity was defined as the total radioactivity in the dosing solution minus any radioactivity lost due to emesis (if any occurred), adsorption to the dosing vial, etc.
Subjects were asked to empty their bladders within approximately 60 minutes prior to dosing for the pre-dose sample. Samples were collected during the 0 to 8 hours and 8 to 24 hours post-dose intervals, and then continuing in 24-hour intervals through Day 49. For subjects who met early release criteria, sampling could cease upon discharge from the clinic. […] One subject was released from the clinic following the 864 hour interval (Day 37) collection and no longer provided excreta samples.
Subjects were asked to bring a pre-dose stool sample with them at check-in (produced within 24 hours of check-in). Stools produced between subject check-in and dosing were collected for the pre-dose sample as well, and the sample produced nearest to dosing was used as the pre-dose sample. Post-dose stools were collected in 24-hour intervals through the morning of Day 49. For subjects who met early release criteria, sampling could cease upon discharge from the clinic. […] One subject was released from the clinic following the 864 hour interval (Day 37) collection and no longer provided excreta samples.
For each subject, multiple fecal specimens from each 24-hour interval were combined into a pre-weighed wide mouth polypropylene/polyethylene container and appropriately labeled. For each interval, the fecal sample was weighed to determine the final fecal weight. Each sample was homogenized into a slurry (approximately 20% suspension in water) from which the necessary aliquots were taken.
Mass balance was calculated as the percent of total administered radioactivity recovered in urine and feces. […]

[1] = single 175 mg oral dose, through 48 days, mean ± SD (% CV), n = 8

COc1cc2nccc(Oc3ccc(NC(=O)C4(C(=O)Nc5ccc(F)cc5)CC4)cc3)c2cc1OC [XL184, N-(4-{[6,7-bis(methyloxy)quinolin-4-yl]oxy}phenyl)-N′-(4-fluorophenyl)cyclopropane-1,1-dicarboxamide]
Urine cumulative excretion of 14C total radioactivity (Day 1 (24 hrs), individual subjects): 2.32% and 4.30% and 3.22% and 7.81% and 3.81% and 3.89% and 4.78% and 3.38% | Urine cumulative excretion of 14C total radioactivity (Day 1 (24 hrs), mean): 4.19% | Urine cumulative excretion of 14C total radioactivity (Day 2 (48 hrs), individual subjects): 4.70% and 8.75% and 6.39% and 14.86% and 7.68% and 8.34% and 9.68% and 7.07% | Urine cumulative excretion of 14C total radioactivity (Day 2 (48 hrs), mean): 8.43% | Urine cumulative excretion of 14C total radioactivity (Day 3 (72 hrs), individual subjects): 7.26% and 13.09% and 9.22% and 20.34% and 11.00% and 12.23% and 13.67% and 9.75% | Urine cumulative excretion of 14C total radioactivity (Day 3 (72 hrs), mean): 12.07% | Urine cumulative excretion of 14C total radioactivity (Day 4 (96 hrs), individual subjects): 9.65% and 16.19% and 11.53% and 24.39% and 13.47% and 15.11% and 16.57% and 12.11% | Urine cumulative excretion of 14C total radioactivity (Day 4 (96 hrs), mean): 14.88% | Urine cumulative excretion of 14C total radioactivity (Day 5 (120 hrs), individual subjects): 11.74% and 18.60% and 13.44% and 27.04% and 15.59% and 17.46% and 18.91% and 13.86% | Urine cumulative excretion of 14C total radioactivity (Day 5 (120 hrs), mean): 17.08% | Urine cumulative excretion of 14C total radioactivity (Day 6 ([…]), mean): 18.72% | Urine cumulative excretion of 14C total radioactivity (Day 7 ([…]), mean): 20.04% | Urine cumulative excretion of 14C total radioactivity (Day 8 (192 hrs), individual subjects): 16.27% and 23.34% and 16.60% and 31.32% and 19.36% and 21.56% and 23.11% and 18.17% | Urine cumulative excretion of 14C total radioactivity (Day 8 (192 hrs), mean): 21.22% | Urine cumulative excretion of 14C total radioactivity (Day 9 (216 hrs), individual subjects): 17.35% and 24.24% and 17.22% and 32.02% and 20.33% and 22.44% and 23.99% and 19.02% | Urine cumulative excretion of 14C total radioactivity (Day 9 (216 hrs), mean): 22.08% | Urine cumulative excretion of 14C total radioactivity (Day 10 (240 hrs), individual subjects): 18.26% and 25.17% and 17.67% and 32.59% and 21.12% and 23.24% and 24.71% and 19.68% | Urine cumulative excretion of 14C total radioactivity (Day 10 (240 hrs), mean): 22.81% | Urine cumulative excretion of 14C total radioactivity (Day 11 ([…]), mean): 23.42% | Cumulative recovery of total radioactivity in feces [1]: 53.79% of Dose | Cumulative recovery of total radioactivity in urine [1]: 27.29% of Dose | Cumulative recovery of total radioactivity, total (urine and feces) (single 175 mg oral dose, within 48 days, mean ± SD (% CV), n = 8): 81.09% of Dose
